Reference: ChEMBL document CHEMBL4428094, “Insights into the structure-activity relationship of the anticancer compound ZJ-101, a derivative of marine natural product superstolide A: A role played by the lactone moiety” (Bioorg Med Chem Lett, 2016)

Experiments:
Assay type in all cases: functional, cell-based
SF-295 = test: Antiproliferative activity against human SF295 cells assessed as reduction in cell viability by Alamar blue assay
HCT-116 = test: Antiproliferative activity against human HCT116 cells assessed as reduction in cell viability by Alamar blue assay
HeLa = test: Antiproliferative activity against human HeLa cells assessed as reduction in cell viability by Alamar blue assay
MDA-MB-231 = test: Antiproliferative activity against human MDA-MB-231 cells assessed as reduction in cell viability by Alamar blue assay
MCF7 = test: Antiproliferative activity against human MCF7 cells assessed as reduction in cell viability by Alamar blue assay

Row | IC50 (MDA-MB-231) [nM] | IC50 (MCF7) [nM] | Compound | IC50 (SF-295) [nM] | IC50 (HCT-116) [nM] | IC50 (HeLa) [nM]
1 | – | – | CC(=O)N[C@H](C)[C@@H](O)[C@@H](C)[C@@H]1OC(=O)/C=C/C=C(C)\C=C\[C@]2(C)CCC=C[C@@H]2/C=C(C)/C=C/[C@H]1C | 63.5 | 94 | 75.4
2 | 584 | 448 | CC(=O)N[C@H](C)[C@@H](O)[C@@H](C)[C@@H]1NC(=O)/C=C/C=C(C)\C=C\[C@]2(C)CCC=C[C@@H]2/C=C(C)/C=C/[C@H]1C | 716 | 746 | 597
